Reference: patent publication US10875876B2, “Cyclized sulfamoylarylamide derivatives and the use thereof as medicaments for the treatment of hepatitis B” (priority 2015, dated 2020)
Read-outs that look alike come from different tables or passages of the source.

Assays:
[1] = system: HBV; assay: anti HBV activity, HepG2.117 cell line, intracellular HBV DNA by realtime PCR; type: cell-based; conditions: HepG2.117 cell line (Tet-off), 3 days of treatment, intracellular HBV DNA quantified by realtime PCR, read-out: HBV-AVE-HepG2.117 EC50
Method in brief: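 HepG2.117 cells, a Tet-off line that replicates HBV without doxycycline, were induced and then treated in duplicate with serially diluted compound. After 3 days, intracellular HBV DNA was quantified by real-time PCR with an HBV-specific primer set and probe.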

[2] = system: HepG2 cells; assay: Cytotoxicity in HepG2 cells, Resazurin assay; conditions: read-out: TOX-HepG2-4 d CC50; HepG2 cells incubated for 4 days, viability by Resazurin assay
[3] = Cytotoxicity in HepG2 cells, Resazurin assay; conditions: human, HepG2 cells, TOX-HepG2-4 d CC50 (μM), HepG2 cells incubated for 4 days, viability by Resazurin assay
[4] = Hepatitis B virus, HepG2.117, 72 h

## Cn1cc2c(c1C(=O)Nc1ccc(F)c(F)c1)OCC(C)(c1ncccn1)NS2(=O)=O (single isomer, unassigned) [Compound 153b, N-(3,4-difluorophenyl)-3,7-dimethyl-1,1-dioxo-3-pyrimidin-2-yl-2,4-dihydropyrrolo[3,4-b][1,4,5]oxathiazepine-6-carboxamide]
[1]
  EC50: 60 nM
[2]
  CC50: > 25000 nM

## Cc1cccc(C2(C)COc3c(cn(C)c3C(=O)Nc3ccc(F)c(C(F)F)c3)S(=O)(=O)N2)n1 (single isomer, unassigned) [Compound 177b, N-[3-(difluoromethyl)-4-fluoro-phenyl]-3,7-dimethyl-3-(6-methyl-2-pyridyl)-1,1-dioxo-2,4-dihydropyrrolo[3,4-b][1,4,5]oxathiazepine-6-carboxamide]
[1]; [4]
  EC50: 4 nM
[2]
  CC50: > 25000 nM

## Cn1cc2c(c1C(=O)Nc1ccc(F)c(C(F)F)c1)CCC(C(C)(C)O)NS2(=O)=O (single isomer, unassigned) [Compound 150b, N-[3-(difluoromethyl)-4-fluoro-phenyl]-3-(1-hydroxy-1-methyl-ethyl)-7-methyl-1,1-dioxo-2,3,4,5-tetrahydropyrrolo[3,4-f]thiazepine-6-carboxamide]
[1]
  EC50: 5 nM
[2]
  CC50: > 25000 nM

## Cn1cc2c(c1C(=O)Nc1cc(F)c(F)c(F)c1)CCC(C(C)(C)O)NS2(=O)=O (single isomer, unassigned) [Compound 149b, 3-(1-hydroxy-1-methyl-ethyl)-7-methyl-1,1-dioxo-N-(3,4,5-trifluorophenyl)-2,3,4,5-tetrahydropyrrolo[3,4-f]thiazepine-6-carboxamide]
[1]
  EC50: 10 nM
[2]
  CC50: > 25000 nM

## Cn1cc2c(c1C(=O)Nc1ccc(F)c(F)c1)OCC(C)(c1cnccn1)NS2(=O)=O (single isomer, unassigned) [Compound 145b, N-(3,4-difluorophenyl)-3,7-dimethyl-1,1-dioxo-3-pyrazin-2-yl-2,4-dihydropyrrolo[3,4-b][1,4,5]oxathiazepine-6-carboxamide]
[1]
  EC50: 60 nM
[2]
  CC50: > 25000 nM

## Cc1cc(CC2(C)COc3c(cn(C)c3C(=O)Nc3cc(F)c(F)c(F)c3)S(=O)(=O)N2)no1 (single isomer, unassigned) [Compound 170b, 3,7-dimethyl-3-[(5-methylisoxazol-3-yl)methyl]-1,1-dioxo-N-(3,4,5-trifluorophenyl)-2,4-dihydropyrrolo[3,4-b][1,4,5]oxathiazepine-6-carboxamide]
[1]; [4]
  EC50: 7 nM
[2]
  CC50: > 25000 nM

## Cn1cc2c(c1C(=O)Nc1cc(F)c(F)c(F)c1)OC[C@H](C(O)C1CC1)NS2(=O)=O (single isomer, unassigned) [Compound 208b, 3-[cyclopropyl(hydroxy)methyl]-7-methyl-1,1-dioxo-N-(3,4,5-trifluorophenyl)-3,4-dihydro-2H-pyrrolo[3,4-b][1,4,5]oxathiazepine-6-carboxamide]
[1]
  EC50: 11 nM
[2]
  CC50: > 25000 nM

## Cn1cc2c(c1C(=O)Nc1ccc(F)c(F)c1)OCC(C1CCOCC1)NS2(=O)=O (single isomer, unassigned) [Compound 89b, N-(3,4-difluorophenyl)-7-methyl-1,1-dioxo-3-tetrahydropyran-4-yl-3,4-dihydro-2H-pyrrolo[3,4-b][1,4,5]oxathiazepine-6-carboxamide]
[1]
  EC50: 17 nM
[2]
  CC50: > 25000 nM

## CC1CCn2c(C(=O)Nc3ccc(F)c(F)c3)nc(Br)c2S(=O)(=O)N1 (stereo not shown) [compound 245]
[1]
  EC50: > 25000 nM
[2]
  CC50: > 25000 nM

## Cn1cc2c(c1C(=O)Nc1ccnc(C(F)F)c1)OCC(C)(CO)NS2(=O)=O (single isomer, unassigned) [Compound 215b, N-[2-(difluoromethyl)-4-pyridyl]-3-(hydroxymethyl)-3,7-dimethyl-1,1-dioxo-2,4-dihydropyrrolo[3,4-b][1,4,5]oxathiazepine-6-carboxamide]
[1]
  EC50: > 125 nM
[2]
  CC50: > 25000 nM

## CC(C)C1C=Cc2c(cn(C)c2C(=O)Nc2ccc(F)c(F)c2)S(=O)(=O)N1 (single isomer, unassigned) [Compound 79b, N-(3,4-difluorophenyl)-3-isopropyl-7-methyl-1,1-dioxo-2,3-dihydropyrrolo[3,4-f]thiazepine-6-carboxamide]
[1]
  EC50: 2 nM
[2]
  CC50: > 25000 nM

## CC(C)C(O)C1COc2c(cn(C)c2C(=O)Nc2ccc(F)c(C#N)c2)S(=O)(=O)N1 (stereo not shown) [Compound 119b, N-(3-cyano-4-fluoro-phenyl)-3-(1-hydroxy-2-methyl-propyl)-7-methyl-1,1-dioxo-3,4-dihydro-2H-pyrrolo[3,4-b][1,4,5]oxathiazepine-6-carboxamide]
[1]
  EC50: 6 nM
[2]
  CC50: > 25000 nM

## CC1CCc2c(cn(C)c2C(=O)Nc2ccc(F)c(F)c2)S(=O)(=O)N1 (single isomer, unassigned) [Compound 10b, N-(3,4-difluorophenyl)-3,7-dimethyl-1,1-dioxo-2,3,4,5-tetrahydropyrrolo[3,4-f]thiazepine-6-carboxamide]
[1]
  EC50: 6 nM
[2]
  CC50: > 25000 nM

## CC(NCC(F)(F)F)C1CCc2c(cn(C)c2C(=O)Nc2cc(F)c(F)c(F)c2)S(=O)(=O)N1 (single isomer, unassigned) [Compound 218b, 7-methyl-1,1-dioxo-3-[1-(2,2,2-trifluoroethylamino)ethyl]-N-(3,4,5-trifluorophenyl)-2,3,4,5-tetrahydropyrrolo[3,4-f]thiazepine-6-carboxamide]
[1]
  EC50: 79 nM
[2]
  CC50: > 25000 nM

## CCC(O)[C@H]1COc2c(cn(C)c2C(=O)Nc2ccc(F)c(C(F)F)c2)S(=O)(=O)N1 (stereo partly drawn) [Compound 124b, (3R)—N-[3-(difluoromethyl)-4-fluoro-phenyl]-3-(1-hydroxypropyl)-7-methyl-1,1-dioxo-3,4-dihydro-2H-pyrrolo[3,4-b][1,4,5]oxathiazepine-6-carboxamide]
[1]
  EC50: 4 nM
[2]
  CC50: > 25000 nM

## CCC(O)[C@H]1COc2c(cn(C)c2C(=O)Nc2ccc(F)c(F)c2)S(=O)(=O)N1 (stereo partly drawn) [Compound 130b, (3R)—N-(3,4-difluorophenyl)-3-(1-hydroxypropyl)-7-methyl-1,1-dioxo-3,4-dihydro-2H-pyrrolo[3,4-b][1,4,5]oxathiazepine-6-carboxamide]
[1]
  EC50: 12 nM
[2]
  CC50: > 25000 nM

## C[C@@H]1NS(=O)(=O)c2cn(C)c(C(=O)Nc3ccc(F)c(F)c3)c2O[C@@H]1C [compound 228]
[1]
  EC50: > 500 nM
[2]
  CC50: > 25000 nM

## CC(C)C(O)C1COc2c(cn(C)c2C(=O)Nc2ccc(F)c(F)c2)S(=O)(=O)N1 (single isomer, unassigned) [Compound 114b, N-(3,4-difluorophenyl)-3-(1-hydroxy-2-methyl-propyl)-7-methyl-1,1-dioxo-3,4-dihydro-2H-pyrrolo[3,4-b][1,4,5]oxathiazepine-6-carboxamide]
[1]
  EC50: 8 nM
[2]
  CC50: > 25000 nM

## Cc1cc(CC2(C)COc3c(cn(C)c3C(=O)Nc3ccc(F)c(C(F)F)c3)S(=O)(=O)N2)n(C)n1 (single isomer, unassigned) [Compound 176b, N-[3-(difluoromethyl)-4-fluoro-phenyl]-3-[(2,5-dimethylpyrazol-3-yl)methyl]-3,7-dimethyl-1,1-dioxo-2,4-dihydropyrrolo[3,4-b][1,4,5]oxathiazepine-6-carboxamide]
[2]
  CC50: > 25000 nM

## Cn1cc2c(c1C(=O)Nc1ccc(F)c(Cl)c1)OC[C@H](C(C)(C)O)NS2(=O)=O [Compound 180, (3R)—N-(3-chloro-4-fluoro-phenyl)-3-(1-hydroxy-1-methyl-ethyl)-7-methyl-1,1-dioxo-3,4-dihydro-2H-pyrrolo[3,4-b][1,4,5]oxathiazepine-6-carboxamide]
[1]; [4]
  EC50: 5 nM
other
  melting point: 234.1 °C
[3]
  CC50 at 4 days: > 25 µM

## Cn1cc2c(c1C(=O)Nc1ccc(F)c(Br)c1F)CCC(C(C)(C)O)NS2(=O)=O (stereo not shown) [Compound 179, N-(3-bromo-2,4-difluoro-phenyl)-3-(1-hydroxy-1-methyl-ethyl)-7-methyl-1,1-dioxo-2,3,4,5-tetrahydropyrrolo[3,4-f]thiazepine-6-carboxamide]
[1]; [4]
  EC50: 21 nM
other
  melting point: 236.8 °C
[3]
  CC50 at 4 days: > 25 µM

## Cn1cc2c(c1C(=O)Nc1ccc(F)c(F)c1)OC[C@](C)(c1ccccn1)NS2(=O)=O [Compound 127, (3S)—N-(3,4-difluorophenyl)-3,7-dimethyl-1,1-dioxo-3-(2-pyridyl)-2,4-dihydropyrrolo[3,4-b][1,4,5]oxathiazepine-6-carboxamide]
[1]; [4]
  EC50: 13 nM
other
  melting point: 270.8 °C
[3]
  CC50 at 4 days: > 25 µM

## Cn1cc2c(c1C(=O)Nc1ccc(F)c(F)c1)OC[C@@H](C(C)(C)O)NS2(=O)=O [Compound 94, (3S)—N-(3,4-difluorophenyl)-3-(1-hydroxy-1-methyl-ethyl)-7-methyl-1,1-dioxo-3,4-dihydro-2H-pyrrolo[3,4-b][1,4,5]oxathiazepine-6-carboxamide]
[1]; [4]
  EC50: 80 nM
other
  melting point: 234.1 °C
[3]
  CC50 at 4 days: > 25 µM

## Cn1cc2c(c1C(=O)Nc1ccnc(Cl)c1)OC[C@H](C(C)(C)O)NS2(=O)=O [Compound 146, (3R)—N-(2-chloro-4-pyridyl)-3-(1-hydroxy-1-methyl-ethyl)-7-methyl-1,1-dioxo-3,4-dihydro-2H-pyrrolo[3,4-b][1,4,5]oxathiazepine-6-carboxamide]
[1]; [4]
  EC50: 55 nM
other
  melting point: 246.6 °C
[3]
  CC50 at 4 days: > 25 µM

## Cn1cc2c(c1C(=O)Nc1ccc(F)c(F)c1)OCC(C)(Cc1ccc(Br)nc1)NS2(=O)=O (stereo not shown) [Compound 171, 3-[(6-bromo-3-pyridyl)methyl]-N-(3,4-difluorophenyl)-3,7-dimethyl-1,1-dioxo-2,4-dihydropyrrolo[3,4-b][1,4,5]oxathiazepine-6-carboxamide]
[1]; [4]
  EC50: 8 nM
other
  melting point: 259.2 °C
[3]
  CC50 at 4 days: > 25 µM
